Results: PMC3445516 (PLoS ONE, 2012)

Columns and labels:
[1] = molecular target: p38α (Homo sapiens, UniProt Q16539); conditions: 10 and 100 nM
Method: Phosphorylation of 3.5 µg of p38 substrate was detected in a reaction having 1 µCi [γ-^32P] ATP (Perkin Elmer Life Sciences), 50 µM ATP, 50 ng active recombinant p38 in 50 µL kinase buffer containing 25 mM Tris-HCl, pH 7.5, 10 mM MgCl2, 5 mM β-glycerophosphate, 0.1 mM Na3VO4 and 2 mM DTT. The reaction was incubated at 30°C for 10 minutes and 25 µL of the reaction was spotted on Whatman P81 filter paper. The filter paper was washed 3 times in 0.5% phosphoric acid, air dried and counted using Beckman LS6500 multipurpose scintillation counter. Percent p38 inhibition was graphed using GraphPad Prism software 5.0.

[2] = system: LPS-stimulated TNFα synthesis; set-up: method as in PMID 14561090; conditions: acute rat model of LPS-stimulated TNFα synthesis; cited from earlier work
[3] = set-up: method as in PMID 14561090; conditions: cited from earlier work
[4] = molecular target: T1, PYK2 (Homo sapiens, UniProt Q14289); test: Ambit kinase profiling, competition binding; conditions: compound concentration 10 uM, read-out: Percent Competition
T1 construct: purchased Ambit Biosciences (KINOMEscan)
Description: (§1) Supplement pone.0044653.s004.xls, sheet "Compound 122" | column: Percent Competition

[5] = molecular target: T2, MKNK1 (Homo sapiens, UniProt Q9BUB5); test: Ambit kinase profiling, competition binding; conditions: compound concentration 10 uM, read-out: Percent Competition
T2 construct: purchased Ambit Biosciences (KINOMEscan)
Description: as §1

[6] = molecular target: T3, CHEK1 (Homo sapiens, UniProt O14757); test: Ambit kinase profiling, competition binding; conditions: compound concentration 10 uM
T3 construct: purchased Ambit Biosciences (KINOMEscan)
Description: as §1

[7] = molecular target: T4, CAMKK1 (Homo sapiens, UniProt Q8N5S9); test: Ambit kinase profiling, competition binding; conditions: compound concentration 10 uM, read-out: Percent Competition
T4 construct: purchased Ambit Biosciences (KINOMEscan)
T4 sequence (Q8N5S9 whole entry): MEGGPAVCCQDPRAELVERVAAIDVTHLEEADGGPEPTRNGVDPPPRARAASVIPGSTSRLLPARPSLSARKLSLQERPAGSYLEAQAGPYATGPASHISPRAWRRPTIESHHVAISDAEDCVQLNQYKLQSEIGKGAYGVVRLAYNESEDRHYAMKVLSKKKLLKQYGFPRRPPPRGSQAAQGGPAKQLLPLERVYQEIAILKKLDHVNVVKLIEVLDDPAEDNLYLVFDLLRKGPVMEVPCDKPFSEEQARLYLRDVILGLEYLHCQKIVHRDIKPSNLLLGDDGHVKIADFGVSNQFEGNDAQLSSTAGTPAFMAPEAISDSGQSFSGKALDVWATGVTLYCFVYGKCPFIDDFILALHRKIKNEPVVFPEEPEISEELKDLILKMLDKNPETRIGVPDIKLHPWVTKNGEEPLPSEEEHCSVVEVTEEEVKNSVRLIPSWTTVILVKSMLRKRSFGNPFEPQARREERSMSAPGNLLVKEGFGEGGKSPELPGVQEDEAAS
Description: as §1

[8] = molecular target: T5, FES (Homo sapiens, UniProt P07332); test: Ambit kinase profiling, competition binding; conditions: compound concentration 10 uM, read-out: Percent Competition
T5 construct: purchased Ambit Biosciences (KINOMEscan)
T5 sequence (P07332 whole entry): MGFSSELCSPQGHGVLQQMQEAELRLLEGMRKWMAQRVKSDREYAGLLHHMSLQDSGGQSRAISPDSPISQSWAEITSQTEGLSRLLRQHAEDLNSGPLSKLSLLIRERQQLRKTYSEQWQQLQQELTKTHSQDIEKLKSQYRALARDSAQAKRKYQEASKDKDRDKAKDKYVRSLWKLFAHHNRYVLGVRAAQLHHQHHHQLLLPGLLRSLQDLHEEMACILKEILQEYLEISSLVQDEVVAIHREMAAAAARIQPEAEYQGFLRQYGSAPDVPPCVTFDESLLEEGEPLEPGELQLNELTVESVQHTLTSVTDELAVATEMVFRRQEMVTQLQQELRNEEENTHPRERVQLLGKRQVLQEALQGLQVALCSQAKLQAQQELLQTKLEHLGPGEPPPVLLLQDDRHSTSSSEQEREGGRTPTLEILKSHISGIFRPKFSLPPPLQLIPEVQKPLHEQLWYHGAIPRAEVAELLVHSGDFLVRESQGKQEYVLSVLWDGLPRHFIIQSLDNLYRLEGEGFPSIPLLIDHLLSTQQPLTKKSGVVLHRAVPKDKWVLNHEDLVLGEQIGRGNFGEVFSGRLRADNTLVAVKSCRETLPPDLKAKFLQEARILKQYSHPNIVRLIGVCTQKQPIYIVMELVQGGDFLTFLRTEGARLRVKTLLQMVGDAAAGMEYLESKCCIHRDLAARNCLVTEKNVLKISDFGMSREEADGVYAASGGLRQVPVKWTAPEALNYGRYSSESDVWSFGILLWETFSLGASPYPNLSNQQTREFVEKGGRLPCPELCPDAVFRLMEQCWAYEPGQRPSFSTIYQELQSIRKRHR
Description: as §1

[9] = molecular target: T6, RPS6KA1(Kin.Dom.1-N-terminal) (Homo sapiens, UniProt Q15418); test: Ambit kinase profiling, competition binding; conditions: compound concentration 10 uM, read-out: Percent Competition
T6 construct: RPS6KA1(Kin.Dom.1-N-terminal); purchased Ambit Biosciences (KINOMEscan)
T6 sequence (Q15418 1-391 limits assumed): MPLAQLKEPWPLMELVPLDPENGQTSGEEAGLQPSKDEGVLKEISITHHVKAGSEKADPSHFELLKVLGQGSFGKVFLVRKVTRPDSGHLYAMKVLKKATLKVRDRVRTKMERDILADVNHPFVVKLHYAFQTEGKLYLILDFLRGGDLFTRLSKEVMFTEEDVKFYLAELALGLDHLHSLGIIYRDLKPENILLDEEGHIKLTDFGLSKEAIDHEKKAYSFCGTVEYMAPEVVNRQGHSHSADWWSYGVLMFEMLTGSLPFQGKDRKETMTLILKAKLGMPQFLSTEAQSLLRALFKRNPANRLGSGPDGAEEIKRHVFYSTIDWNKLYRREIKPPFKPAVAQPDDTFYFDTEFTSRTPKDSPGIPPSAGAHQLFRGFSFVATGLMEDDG
Description: as §1

[10] = molecular target: T7, KIT (Homo sapiens, UniProt P10721); test: Ambit kinase profiling, competition binding; conditions: compound concentration 10 uM, read-out: Percent Competition
T7 construct: purchased Ambit Biosciences (KINOMEscan)
Description: as §1

[11] = molecular target: T8, PAK2 (Homo sapiens, UniProt Q13177); test: Ambit kinase profiling, competition binding; conditions: compound concentration 10 uM, read-out: Percent Competition
T8 construct: purchased Ambit Biosciences (KINOMEscan)
T8 sequence (Q13177 whole entry): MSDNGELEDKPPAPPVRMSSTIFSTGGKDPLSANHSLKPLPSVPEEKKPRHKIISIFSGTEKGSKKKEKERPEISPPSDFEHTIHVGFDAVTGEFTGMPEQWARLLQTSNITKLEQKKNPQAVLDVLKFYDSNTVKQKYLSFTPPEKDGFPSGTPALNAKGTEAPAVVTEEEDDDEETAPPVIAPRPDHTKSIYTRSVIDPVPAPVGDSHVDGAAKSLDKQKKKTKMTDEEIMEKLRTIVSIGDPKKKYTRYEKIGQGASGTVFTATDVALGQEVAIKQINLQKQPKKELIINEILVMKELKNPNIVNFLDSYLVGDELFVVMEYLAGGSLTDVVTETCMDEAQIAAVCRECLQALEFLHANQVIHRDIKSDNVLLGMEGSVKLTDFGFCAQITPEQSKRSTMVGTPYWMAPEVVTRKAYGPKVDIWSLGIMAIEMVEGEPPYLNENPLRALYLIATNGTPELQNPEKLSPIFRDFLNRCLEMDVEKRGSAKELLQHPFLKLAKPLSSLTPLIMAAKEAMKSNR
Description: as §1

[12] = molecular target: T9, PIK3CG (Homo sapiens, UniProt P48736); test: Ambit kinase profiling, competition binding; conditions: compound concentration 10 uM, read-out: Percent Competition
T9 construct: purchased Ambit Biosciences (KINOMEscan)
T9 sequence (P48736 whole entry): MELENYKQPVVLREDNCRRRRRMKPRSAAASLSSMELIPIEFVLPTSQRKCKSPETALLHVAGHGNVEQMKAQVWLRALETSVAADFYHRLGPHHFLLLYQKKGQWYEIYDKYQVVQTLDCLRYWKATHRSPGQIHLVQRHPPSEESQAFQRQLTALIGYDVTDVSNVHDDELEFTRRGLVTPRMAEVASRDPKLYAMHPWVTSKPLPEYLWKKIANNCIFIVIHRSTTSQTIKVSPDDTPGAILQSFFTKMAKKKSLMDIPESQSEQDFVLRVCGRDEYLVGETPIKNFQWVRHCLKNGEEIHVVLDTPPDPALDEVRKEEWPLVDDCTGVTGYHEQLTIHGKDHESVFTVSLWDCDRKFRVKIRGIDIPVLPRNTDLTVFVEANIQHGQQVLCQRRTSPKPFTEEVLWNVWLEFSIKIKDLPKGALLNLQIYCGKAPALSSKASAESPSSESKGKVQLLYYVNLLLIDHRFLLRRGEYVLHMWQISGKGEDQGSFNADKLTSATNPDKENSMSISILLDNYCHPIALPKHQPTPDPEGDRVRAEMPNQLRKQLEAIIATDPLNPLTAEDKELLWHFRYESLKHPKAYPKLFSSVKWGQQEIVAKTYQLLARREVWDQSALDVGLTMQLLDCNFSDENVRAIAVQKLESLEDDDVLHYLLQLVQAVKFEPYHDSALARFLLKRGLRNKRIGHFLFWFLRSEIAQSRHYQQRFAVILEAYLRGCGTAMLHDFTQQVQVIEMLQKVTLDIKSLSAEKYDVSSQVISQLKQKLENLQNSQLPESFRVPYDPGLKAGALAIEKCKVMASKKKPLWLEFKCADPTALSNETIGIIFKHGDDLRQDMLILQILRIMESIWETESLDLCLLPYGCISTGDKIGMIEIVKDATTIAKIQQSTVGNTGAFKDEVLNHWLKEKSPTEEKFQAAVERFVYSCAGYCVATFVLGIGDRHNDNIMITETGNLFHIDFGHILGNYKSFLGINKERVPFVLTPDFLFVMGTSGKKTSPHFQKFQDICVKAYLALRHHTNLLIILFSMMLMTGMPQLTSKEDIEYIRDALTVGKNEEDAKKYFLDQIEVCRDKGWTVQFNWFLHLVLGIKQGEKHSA
Description: as §1

[13] = molecular target: T10, CHEK2 (Homo sapiens, UniProt O96017); test: Ambit kinase profiling, competition binding; conditions: compound concentration 10 uM, read-out: Percent Competition
T10 construct: purchased Ambit Biosciences (KINOMEscan)
T10 sequence (O96017 whole entry): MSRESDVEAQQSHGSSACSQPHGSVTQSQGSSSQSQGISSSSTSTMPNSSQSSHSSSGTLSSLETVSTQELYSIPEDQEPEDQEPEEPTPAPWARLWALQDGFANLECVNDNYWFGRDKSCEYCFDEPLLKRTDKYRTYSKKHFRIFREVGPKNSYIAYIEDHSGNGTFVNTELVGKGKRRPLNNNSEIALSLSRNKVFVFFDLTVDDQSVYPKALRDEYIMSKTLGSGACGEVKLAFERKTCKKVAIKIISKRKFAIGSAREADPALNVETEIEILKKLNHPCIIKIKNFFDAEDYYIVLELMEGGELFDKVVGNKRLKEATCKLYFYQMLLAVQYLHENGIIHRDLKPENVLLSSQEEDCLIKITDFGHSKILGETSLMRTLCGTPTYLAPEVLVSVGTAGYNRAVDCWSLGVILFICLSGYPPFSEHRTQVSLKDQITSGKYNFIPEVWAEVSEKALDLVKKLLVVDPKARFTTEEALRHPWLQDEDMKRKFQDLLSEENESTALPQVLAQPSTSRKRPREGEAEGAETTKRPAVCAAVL
Description: as §1

[14] = molecular target: T11, STK33 (Homo sapiens, UniProt Q9BYT3); test: Ambit kinase profiling, competition binding; conditions: compound concentration 10 uM, read-out: Percent Competition
T11 construct: purchased Ambit Biosciences (KINOMEscan)
T11 sequence (Q9BYT3 whole entry): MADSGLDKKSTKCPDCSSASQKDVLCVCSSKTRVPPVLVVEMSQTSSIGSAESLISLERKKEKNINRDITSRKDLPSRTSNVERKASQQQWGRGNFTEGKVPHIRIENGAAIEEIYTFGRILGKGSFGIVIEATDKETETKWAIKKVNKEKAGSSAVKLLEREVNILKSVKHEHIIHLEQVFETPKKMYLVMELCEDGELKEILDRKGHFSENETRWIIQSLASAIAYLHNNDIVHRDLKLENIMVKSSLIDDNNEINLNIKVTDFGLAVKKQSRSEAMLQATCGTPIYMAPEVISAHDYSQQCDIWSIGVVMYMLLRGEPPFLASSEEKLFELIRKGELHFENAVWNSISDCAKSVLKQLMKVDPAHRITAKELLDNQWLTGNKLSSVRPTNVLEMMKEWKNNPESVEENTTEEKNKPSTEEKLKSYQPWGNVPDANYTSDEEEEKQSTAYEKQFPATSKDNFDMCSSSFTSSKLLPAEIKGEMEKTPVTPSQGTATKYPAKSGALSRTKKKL
Description: as §1

Chain of p38α (Q16539 whole entry): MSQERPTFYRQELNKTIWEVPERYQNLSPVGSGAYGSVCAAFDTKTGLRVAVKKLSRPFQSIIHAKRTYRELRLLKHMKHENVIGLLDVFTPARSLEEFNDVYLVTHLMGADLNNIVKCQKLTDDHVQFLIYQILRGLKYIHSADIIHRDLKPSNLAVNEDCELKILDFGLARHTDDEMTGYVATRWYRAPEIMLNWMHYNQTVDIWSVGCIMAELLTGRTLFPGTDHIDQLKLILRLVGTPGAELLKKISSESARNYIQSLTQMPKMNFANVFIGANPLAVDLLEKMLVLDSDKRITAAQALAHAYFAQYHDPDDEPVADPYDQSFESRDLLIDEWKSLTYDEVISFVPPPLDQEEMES

CC(O)CNc1cc(-c2[nH]c3cccnc3c2-c2ccc(F)cc2)ccn1 (centres unmarked) [Compound 140]
inhibition of p38α [1]: most potent
in vivo efficacy [2]: in vivo efficacy has been demonstrated
pharmacokinetic (PK) parameters [3]: favorable pharmacokinetic (PK) parameters

Fc1ccc(-c2c(-c3ccncc3)[nH]c3nccnc23)cc1 [RO1155697-000-005]
inhibition at 10 µM [4]: < 50%
inhibition at 10 µM [5]: < 50%
Percent Competition [6]: <50%
inhibition at 10 µM [7]: < 50%
inhibition at 10 µM [8]: < 50%
inhibition at 10 µM [9]: < 50%
inhibition at 10 µM [10]: < 50%
inhibition at 10 µM [11]: < 50%
inhibition at 10 µM [12]: < 50%
inhibition at 10 µM [13]: < 50%
inhibition at 10 µM [14]: < 50%
